Data on 27 compounds can be found in publication PMC9101642 (Molecules, 2022).

Structures are written as SMILES. Where two headings read alike, the source gives them in different places.

One assay concerns estrogen receptor α. Particulars: cited from earlier work; for pRBA: modeled test set TSMOD3.
The test system of another assay is MCF-7 cells. Briefly: Cell cycle distribution by flow cytometry. Format: cell-based, human. The following applies: 24 h. Background: Flow cytometry measures light scatter and fluorescence of single cells or particles in a stream.
Setting [1] is: ligands of wild-type (WT) ERα complexes, training set.
Setting [2] is: ligands of mutated (MUT) ERα complexes, training set.
Setting [3] is: crystal test set TSCRY (WT and MUT complexes).

As to `O=C1CC(c2ccccc2)Oc2ccc(O)cc21` (centres unmarked) [6-Hydroxyflavanone], the pRBA in the assay on estrogen receptor α was 6.05.

On to `O=c1cc(-c2ccccc2)oc2ccc(O)cc12` [6-Hydroxyflavone], for which the pRBA with estrogen receptor α is given as 6.40.

`O=c1cc(-c2ccc(O)cc2)oc2ccc(O)cc12` [-Dihydroxyflavone]: the pRBA with estrogen receptor α was 3.82.

For the compound `O=c1c(O)c(-c2ccc(O)cc2)oc2ccc(O)cc12` [-Trihydroxy flavone], the pRBA in the assay on estrogen receptor α is 3.35.

Turning to `O=c1c(-c2ccc(O)c(O)c2)coc2cc(O)ccc12` [-Trihydroxy isoflavone], the pRBA in the assay with estrogen receptor α is reported as 5.35.

As for `O=c1cc(-c2ccccc2)oc2cc(O)c(O)c(O)c12` [Baicalein], on estrogen receptor α (modeled test set TSMOD1), the negative logarithm of the IC50 (pIC50) was 4.71. Moreover, the pRBA in the assay on estrogen receptor α is listed as 6.05.

Take `COc1ccc(-c2coc3cc(O)cc(O)c3c2=O)cc1` [Biochanin A]: in the assay with estrogen receptor α, the pRBA was 5.37.

As for `CC/C(=C(\c1ccccc1)c1ccc(/C=C/C(=O)O)cc1)c1ccccc1` [Compound 1R5K], on estrogen receptor α (setting [1]), the pIC50 is 7.40.

On to `Oc1ccc([C@@H]2Sc3cc(O)ccc3O[C@@H]2c2ccc(OCCN3CCCCC3)cc2)cc1` [Compound 1SJ0], for which, at estrogen receptor α, the pIC50 was 9.09.

For the compound `Oc1ccc2c(c1)CCN(c1ccccc1)[C@H]2c1ccc(N2CCC3CCCCN3C2)cc1` (some centres unmarked) [Compound 1XQC], the pIC50 at estrogen receptor α (setting [1]) was 7.20.

For `CC1(O)CCC2c3ccc4cc(O)ccc4c3CCC21C` (centres unmarked) [Compound 2B1Z], the pIC50 on estrogen receptor α was 7.10.

In the case of `Oc1ccc(-c2n[nH]c3cc(O)ccc23)c(O)c1` [Compound 2QA6], the pIC50 on estrogen receptor α (setting [2]) is 7.30.

As for `CC1CCN(CCOc2ccc(C(=O)c3c(-c4ccc(O)cc4)sc4cc(O)ccc34)cc2)CC1` [Compound 2R6W], the negative logarithm of the Ki (pKi) at estrogen receptor α (Table S1, PDB ligands) was 9.4. Also, the pIC50 on estrogen receptor α (setting [2]) is recorded as 8.60.

Take `O=C(c1ccc(OCCN2CCCC2)cc1)c1c(-c2ccc(O)cc2)sc2cc(O)ccc12` [Compound 2R6Y]: the pKi on estrogen receptor α (Table S1, PDB ligands) is 9.5. Also, on estrogen receptor α (setting [2]), the pIC50 was 8.90.

Regarding `CC(C)(c1ccc(O)cc1)c1ccc(O)cc1` [Compound 3UU7], the pKi at estrogen receptor α (setting [3]) is recorded as 8.79.

Consider `Oc1ccc(C(c2ccc(O)cc2)(C(F)(F)F)C(F)(F)F)cc1` [Compound 3UUA], for which the negative-log Ki (pKi) on estrogen receptor α (setting [3]) was 8.79.

For `Oc1ccc(C(=C(Cl)Cl)c2ccc(O)cc2)cc1` [Compound 3UUC], at estrogen receptor α (setting [3]), the pKi is recorded as 5.70.

Regarding `OCc1cc(Br)c(-c2ccc(O)cc2)c(-c2ccoc2)c1` [Compound 4DMA], on estrogen receptor α (setting [3]), the pKi is given as 5.60.

On to `C[C@H]1CCC[C@H](O)CCCCCc2cc(O)cc(O)c2C(=O)O1` [Compound 4MG8], for which the negative logarithm of the Ki (pKi) on estrogen receptor α (setting [3]) is listed as 10.00.

For `O=C(c1ccc(O)cc1O)c1ccc(O)cc1O` [Compound 4MGC], the pKi at estrogen receptor α (setting [3]) is listed as 7.00.

Consider `C[C@H]1CCC[C@H](O)CCC/C=C/c2cc(O)cc(O)c2C(=O)O1` [Compound 4TUZ], for which the pKi at estrogen receptor α (setting [3]) was 10.00.

`Cc1cc(F)ccc1-c1c(Cc2ccc(/C=C/C(=O)O)cc2)c2ccc(O)cc2oc1=O` [Compound 5AK2]: the pIC50 at estrogen receptor α (setting [2]) is 8.40.

As to `C[C@]12CC[C@@H]3c4ccc(O)cc4CC[C@H]3[C@@H]1CC[C@@H]2O` [Compound E2, 17β-estradiol, reference compound], in the assay on MCF-7 cells (0.1 nM), the “Cell Cycle (%) G0/G1” value is 17.34 ± 0.35 *^,‡,§ %, the “Cell Cycle (%) G2/M” value is recorded as 54.51 ± 0.57 *^,‡,§ % and the “Cell Cycle (%) S” value was 28.15 ± 0.52 *^,‡,§ %. Further, in the assay with MCF-7 cells (1 nM), the “Cell Cycle (%) G0/G1” value was 25.34 ± 0.36 *^,‡,§ %, the “Cell Cycle (%) G2/M” value was 45.14 ± 0.33 *^,‡,§ % and the “Cell Cycle (%) S” value is reported as 29.52 ± 0.46 *^,‡,§ %.

On to `Cc1c(-c2ccc(O)cc2)nn(-c2ccc(O)cc2)c1-c1ccc(O)cc1` [Compound I3-I1], for which the pKi on estrogen receptor α (modeled test set TSMOD2) is given as 7.25.

With `CCc1c(-c2ccc(O)cc2)nn(-c2ccc(O)cc2)c1-c1ccc(O)cc1` [Compound I3-I2], at estrogen receptor α (modeled test set TSMOD2), the pKi is reported as 9.08.

With `CCCc1c(-c2ccc(O)cc2)nn(-c2ccc(O)cc2)c1-c1ccc(O)cc1` [Compound I3-I3], on estrogen receptor α (modeled test set TSMOD2), the pKi is 9.23.

With `CCCCc1c(-c2ccc(O)cc2)nn(-c2ccc(O)cc2)c1-c1ccc(O)cc1` [Compound I3-I4], at estrogen receptor α (modeled test set TSMOD2), the pKi was 8.68.

One may read the pIC50 as −log10 of the IC50, conventionally taken in molar units. In general, pKi refers to −log10 of the Ki, conventionally taken in molar units.
